{
  "source": "paper PMC7297817",
  "about": "“Pharmacological Characterization of a Betaine/GABA Transporter 1 (BGT1) Inhibitor Displaying an Unusual Biphasic Inhibition Profile and Anti-seizure Effects” (Neurochemical Research, 2020)",
  "key": {"NET": {"target": "T1, NET (Homo sapiens, UniProt P23975)", "T1 construct": "purchased NIMH Psychoactive Drug Screening Program (PDSP)", "experiment": "NIMH PDSP radioligand binding, NET", "settings": "radioligand [3H]nisoxetine, n=4"}, "Beta1": {"target": "T2, Beta1 (Homo sapiens, UniProt P08588)", "T2 construct": "purchased NIMH Psychoactive Drug Screening Program (PDSP)", "experiment": "NIMH PDSP radioligand binding, Beta1", "settings": "radioligand [125I]pindolol, n=4"}, "M5": {"target": "T3, M5 (Homo sapiens, UniProt P08912)", "T3 construct": "purchased NIMH Psychoactive Drug Screening Program (PDSP)", "experiment": "NIMH PDSP radioligand binding, M5"}, "CF-1 mice": {"test_system": "CF-1 mice", "experiment": "Maximal electroshock (MES) test", "type": "in vivo, mouse", "settings": "for #Protected/#Tested: 15 min", "source_text": "Male audiogenic-susceptible (AGS) Frings mice were obtained from an in-house breeding facility at the University of Utah (Salt Lake City, UT, USA). Male CF-1 mice for the maximal electroshock (MES) test and the subcutaneous pentylenetetrazol (s.c.PTZ) seizure threshold test were purchased from Charles River (Kingston, WA, USA). All mice were housed in a temperature, humidity, and light (on at 6:00 AM) controlled facility at the University of Utah with access to ad libitum food and water except during testing. All procedures were carried out at the University of Utah in concordance with the National Institutes of Health Guidelines for the Care and Use of Laboratory Animals and under approval from the University of Utah’s Institutional Animal Care and Use Committee. The mice were euthanized in accordance with Public Health Service policies on the humane care of laboratory animals. […] This is a model of generalised tonic–clonic seizures, and was conducted as described previously. In brief, a drop of anaesthetic/electrolyte solution (0.5% tetracaine hydrochloride in 0.9% saline) was applied to the cornea of each animal prior to placement of the silver-coated corneal electrodes. An alternating current of 50 mA (60 Hz) was delivered for 0.2 s to the cornea of the mouse using a Woodbury–Davenport stimulator. The supramaximal current applied to the cornea was sufficient to induce maximal tonic extension seizures in all non-treated mice. […] Those mice not displaying full hind limb tonic extension seizures were considered protected. Probit analysis was used to analyse the efficacy and tolerability results obtained from the dose–response studies and to calculate the median effective (ED50) dose, the median toxic dose (TD50), and the 95% confidence interval."}, "Sigma1": {"target": "Sigma1 (Cavia porcellus, UniProt Q60492)", "sequence (Q60492 whole entry)": "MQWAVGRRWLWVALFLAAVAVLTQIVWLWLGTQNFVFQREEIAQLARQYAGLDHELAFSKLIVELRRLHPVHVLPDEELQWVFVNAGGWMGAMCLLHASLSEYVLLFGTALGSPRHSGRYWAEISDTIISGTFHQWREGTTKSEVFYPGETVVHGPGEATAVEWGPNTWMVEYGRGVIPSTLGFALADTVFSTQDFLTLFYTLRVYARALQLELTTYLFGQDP", "experiment": "NIMH PDSP radioligand binding, Sigma1", "settings": "radioligand [3H]pentazocine(+), n=4", "experimental": "IC50 values in μM (Ki μM)^a. The targets in bold were inhibited by >35% at 10 μM."}, "D3": {"target": "T4, D3 (Homo sapiens, UniProt P35462)", "T4 construct": "purchased NIMH Psychoactive Drug Screening Program (PDSP)", "experiment": "NIMH PDSP radioligand binding, D3", "settings": "radioligand [3H]N-methylspiperone, n=4"}, "hBGT1": {"target": "T5, hBGT1 (Homo sapiens, UniProt P48065)", "T5 construct": "expressed in transfected cells; host or cells: tsA201 (transient)", "T5 sequence (P48065 1-614)": "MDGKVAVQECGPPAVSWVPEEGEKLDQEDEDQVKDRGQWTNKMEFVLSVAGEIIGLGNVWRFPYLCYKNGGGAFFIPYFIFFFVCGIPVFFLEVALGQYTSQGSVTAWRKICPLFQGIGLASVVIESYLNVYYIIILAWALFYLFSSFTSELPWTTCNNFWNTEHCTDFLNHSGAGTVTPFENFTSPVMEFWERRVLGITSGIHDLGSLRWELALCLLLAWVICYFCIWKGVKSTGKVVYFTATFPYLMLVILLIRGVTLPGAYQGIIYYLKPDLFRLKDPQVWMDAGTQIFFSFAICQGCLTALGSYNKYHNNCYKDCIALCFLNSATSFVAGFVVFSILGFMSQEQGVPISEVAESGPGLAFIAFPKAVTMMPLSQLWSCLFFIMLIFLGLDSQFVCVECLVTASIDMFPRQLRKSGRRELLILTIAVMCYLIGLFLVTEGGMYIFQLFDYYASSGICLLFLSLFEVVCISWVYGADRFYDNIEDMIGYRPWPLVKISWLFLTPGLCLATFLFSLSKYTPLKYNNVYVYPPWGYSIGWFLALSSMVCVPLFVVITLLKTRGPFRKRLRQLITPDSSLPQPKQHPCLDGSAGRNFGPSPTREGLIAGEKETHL", "experiment": "[3H]GABA uptake at hBGT1 stably expressed in CHO cells", "type": "cell-based", "experimental": "(§1) The HEK-293 and Flp-In CHO cell lines stably expressing mouse (m) and human (h) GATs, respectively, have been described previously and were cultured accordingly. The tsA201 cell line was used for transient expression while the MDCK II cell line express BGT1 endogenously. Both cell lines were cultured as described. tsA201 cells were transfected with DNA constructs (8 μg per 10 cm dish if not otherwise mentioned) using 40 μL PolyFect transfection reagent according to the manufacturer’s protocol (Qiagen, Venlo, Netherlands). The DNA constructs encoding hBGT1, hGAT1-3 [36], the mutated constructs hBGT1 Q299 and hGAT3 L314Q described previously, and hBGT Y453A were synthesized and sequence validated by Genscript (NJ, USA).\n(§2) The [^3H]GABA competition uptake assay was performed as previously described. A minor change, however, was introduced for uptake in MDCK II cells, in which 100 nM [^3H]GABA was used for a 15 min incubation period at 37 °C instead of 30 nM [^3H]GABA and 3 min incubation. Studies related to the inhibition curves with GABA and BPDBA at hBGT1 were obtained both with and without the presence of 10 μM ATP during the [^3H]GABA uptake assay.\n(§3) The [^3H]GABA uptake data was normalized to the percentage of total uptake in the individual experiments in the presence of the lowest compound concentration or no compound present. Data presented is the pooled data of at least three independent experiments with three technical replicates. Concentration–response curves (CRCs) were fitted with GraphPad Prism (version 8.2.1, Yosemite, GraphPad Software, San Diego, CA, USA) by non-linear regression to the sigmoidal concentration response model: Y=Bottom+(Top-Bottom)/1+10^LogIC50-X∗nH where Top is the Top plateau, Bottom is the Bottom plateau, X is the logarithm of the concentration of the compound, LogIC50 is the concentration giving a response halfway between Top and Bottom,and nH is the Hill slope.\n(§4) The best fit for CRCs obtained with the [^3H]GABA uptake assay was identified by the extra-sum-of-squares F test (for convenience referred to as F test)."}, "mGAT1": {"target": "T6, mGAT1 (Mus musculus, UniProt P31648)", "T6 construct": "expressed in transfected cells", "experiment": "[3H]GABA uptake at mGAT1 stably expressed in HEK-293 cells", "type": "cell-based", "experimental": "as §1, §2, §3, §4"}},
  "note": "Entries after “also recorded” stand apart in the source; their conditions may differ. Like-named read-outs stand apart in the source and are kept apart here.",
  "data": [
    {"smiles": "Cc1ccsc1C(=CCCN(C)[C@H]1CCCC[C@H]1C(=O)O)c1sccc1C", "note": "[SBV2-114, (1R,2S)-2-((4,4-bis(3-methylthiophen-2-yl)but-3-en-yl)(methyl)amino)cyclohexanecarboxylic acid]", "values": [
      {"measurement": "inhibition at 10 µM", "setting": "NET", "result": 0.1, "unit": "%"},
      {"measurement": "inhibition at 10 µM", "setting": "Beta1", "result": 37.9, "unit": "%"},
      {"measurement": "inhibition at 10 µM", "setting": "M5", "result": 23.5, "unit": "%"},
      {"measurement": "#Protected/#Tested", "setting": "CF-1 mice; 50 mg/kg i.p.", "result": "0/3"},
      {"measurement": "#Protected/#Tested", "setting": "CF-1 mice; 100 mg/kg i.p.", "result": "0/4"},
      {"measurement": "#Protected/#Tested", "setting": "CF-1 mice; 125 mg/kg i.p.", "result": "2/7"},
      {"measurement": "#Protected/#Tested", "setting": "CF-1 mice; 150 mg/kg i.p.", "result": "4/6"},
      {"measurement": "#Protected/#Tested", "setting": "CF-1 mice; 200 mg/kg i.p.", "result": "4/4"},
      {"measurement": "ED50", "setting": "CF-1 mice; Mus musculus, ip", "result": 139, "unit": "mg/kg"},
      {"measurement": "inhibition at 10 µM", "setting": "Sigma1", "result": 55.6, "unit": "%"},
      {"measurement": "inhibition at 10 µM", "setting": "D3", "result": 27.8, "unit": "%"},
      {"measurement": "IC50", "setting": "hBGT1; IC50, high affinity component, biphasic fit, N=2 of four experiments, CHO", "result": 0.05, "unit": "µM"},
      {"measurement": "Frac", "setting": "hBGT1; biphasic fit, N=2, CHO", "result": 0.10},
      {"measurement": "IC50", "setting": "hBGT1; pIC50 ± S.E.M., high affinity component, biphasic fit, N=2, CHO", "result": 0.0513, "unit": "µM"},
      {"measurement": "Fit", "setting": "hBGT1; preferred model, N=2", "result": "Biphasic"},
      {"measurement": "IC50", "setting": "hBGT1; read-out: IC50, low affinity component, biphasic fit, N=2, CHO", "result": 490, "unit": "µM"},
      {"measurement": "IC50", "setting": "hBGT1; single IC50, N=2, fit not given, CHO, read-out: IC50", "result": 447, "unit": "µM"},
      {"measurement": "IC50", "setting": "mGAT1; ambiguous fit, N=1 experiment, read-out: IC50", "result": "> 1000", "unit": "µM"},
      {"measurement": "Frac", "setting": "mGAT1; biphasic fit, N=1 experiment", "result": 0.14},
      {"measurement": "IC50", "setting": "mGAT1; biphasic fit, N=1 experiment, read-out: pIC50, high affinity component (converted)", "result": 0.417, "unit": "µM"},
      {"measurement": "IC50", "setting": "mGAT1; monophasic fit, N=1 experiment, read-out: IC50", "result": "> 1000", "unit": "µM"},
      {"measurement": "Fit", "setting": "mGAT1; preferred model per experiment, F test", "result": "Biphasic; also recorded: Monophasic; also recorded: Ambiguous"},
      {"measurement": "IC50", "setting": "mGAT1; read-out: IC50, low affinity component, biphasic fit, N=1 experiment", "result": 755, "unit": "µM"}
    ]}
  ]
}
